Laboratory results reported in patent US9328122B2, “7-substituted Hanfangichin B derivative, and preparation method and use thereof” (HANGZHOU BENSHENG PHARMACEUTICAL CO., LTD., priority 2012, dated 2016).
In brackets after ≈: the same amount, converted by molar mass.

Columns and labels:
[1] = system: SK-OV-3 (ovarian cancer) cells; assay: MTT cell growth inhibition, solid tumor cells; format: cell-based, human; conditions: Homo sapiens, SK-OV-3, 72 h, MTT; for IC50: read-out: IC50; for IC90: read-out: IC90
Method in brief: (§1)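 Seeding: 6000 cells/well, DMEM high glucose + 10% FBS, 24 h, 37 °C/5% CO2. Compound at graded concentrations, 72 h. Readout MTT (viable cells).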

[2] = system: CaEs-17 (esophageal cancer) cells; assay: MTT cell growth inhibition, solid tumor cells; format: cell-based, human; conditions: Homo sapiens, CaEs17, CaEs-17, 72 h, MTT; for IC50: read-out: IC50; for IC90: read-out: IC90
Method in brief: as §1

[3] = system: PC-3 (prostate cancer) cells; assay: MTT cell growth inhibition, solid tumor cells; format: cell-based, human; conditions: Homo sapiens, PC-3, 72 h, MTT; for IC50: read-out: IC50; for IC90: read-out: IC90
Method in brief: as §1

[4] = system: PANC-1 (pancreatic cancer) cells; assay: MTT cell growth inhibition, solid tumor cells; format: cell-based, human; conditions: for IC50 / IC90: Homo sapiens, PANC-1, 72 h, MTT; for IC50: read-out: IC50; for IC90: read-out: IC90
Method in brief: as §1

[5] = system: CNE (nasopharyngeal carcinoma) cells; assay: MTT cell growth inhibition, solid tumor cells; format: cell-based, human; conditions: Homo sapiens, CNE, 72 h, MTT; for IC50: read-out: IC50; for IC90: read-out: IC90
Method in brief: as §1

[6] = system: RPMI 8226 (multiple myeloma) cells; assay: MTT cell growth inhibition, multiple myeloma cells; format: cell-based, human; conditions: Homo sapiens, RPMI 8226, 72 h, MTT; for IC50: read-out: IC50; for IC90: read-out: IC90
Method in brief: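 Viable-cell readout by MTT after 72 h exposure (37° C, 5% CO2) of RPMI 8226 cells to a range of compound concentrations, added one day post-seeding. Cells were seeded at 6000 per well in RPMI-1640 containing 10% FBS.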

[7] = system: H9 (acute lymphoblastic leukemia) cells; assay: MTT cell growth inhibition, leukemia cells; format: cell-based, human; conditions: Homo sapiens, H9, 72 h, MTT; for IC50: read-out: IC50; for IC90: read-out: IC90
Method in brief: (§2)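 MTT read-out of viable cells after 72 h compound exposure at 37° C., 5% CO2; 6000 cells/well in RPMI-1640 + 10% FBS, dosed one day after seeding over a range of concentrations.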

[8] = system: Kasumi-1 (acute myeloid leukemia M2 type) cells; assay: MTT cell growth inhibition, leukemia cells; format: cell-based, human; conditions: Homo sapiens, Kasumi-1, 72 h, MTT; for IC50: read-out: IC50; for IC90: read-out: IC90
Method in brief: as §2

[9] = system: Jurkat (acute lymphoblastic leukemia) cells; assay: MTT cell growth inhibition, leukemia cells; format: cell-based, human; conditions: Homo sapiens, Jurkat, 72 h, MTT; for IC50: read-out: IC50; for IC90: read-out: IC90
Method in brief: as §2

[10] = system: NB4 (acute promyelocytic leukemia) cells; assay: MTT cell growth inhibition, leukemia cells; format: cell-based; conditions: Homo sapiens, NB4, 72 h, MTT; for IC50: read-out: IC50; for IC90: read-out: IC90
Method in brief: as §2

[11] = system: K562/ADR (K562adr, drug-resistant chronic myeloid leukemia) cells; assay: MTT cell growth inhibition, leukemia cells; format: cell-based; conditions: Homo sapiens, K562/ADR, 72 h, MTT; for IC50: read-out: IC50; for IC90: read-out: IC90
Method in brief: as §2

[12] = system: A549 (human lung cancer) cells; assay: MTT cell growth inhibition, solid tumor cells; format: cell-based; conditions: Homo sapiens, A549, 72 h, MTT; for IC50: read-out: IC50; for IC90: read-out: IC90
Method in brief: as §1

[13] = system: MG-63 (osteosarcoma) cells; assay: MTT cell growth inhibition, solid tumor cells; format: cell-based; conditions: Homo sapiens, MG-63, 72 h, MTT; for IC50: read-out: IC50; for IC90: read-out: IC90
Method in brief: as §1

[14] = system: RKO (human colon adenocarcinoma) cells; assay: MTT cell growth inhibition, solid tumor cells; format: cell-based; conditions: Homo sapiens, RKO, 72 h, MTT; for IC50: read-out: IC50; for IC90: read-out: IC90
Method in brief: as §1

[15] = system: Hep-2 (laryngeal carcinoma) cells; assay: MTT cell growth inhibition, solid tumor cells; format: cell-based; conditions: Homo sapiens, Hep-2, 72 h, MTT; for IC50: read-out: IC50; for IC90: read-out: IC90
Method in brief: as §1

[16] = system: U87-MG (malignant glioma) cells; assay: MTT cell growth inhibition, solid tumor cells; format: cell-based; conditions: Homo sapiens, U-87 MG, U87-MG, 72 h, MTT; for IC50: read-out: IC50; for IC90: read-out: IC90
Method in brief: as §1

[17] = system: Hep G2 (human liver cancer) cells; assay: MTT cell growth inhibition, solid tumor cells; format: cell-based; conditions: for IC50 / IC90: Homo sapiens, HepG2, Hep G2, 72 h, MTT; for IC50: read-out: IC50; for IC90: read-out: IC90
Method in brief: as §1

tumor = assay: Antitumor activity compared with fangchinoline, overall statement; format: cell-based; conditions: tumor type not specified
[18] = relative to fangchinoline, Table 2

Row | IC50 [1] [µg/mL] | IC90 [1] [µg/mL] | IC50 [2] [µg/mL] | IC90 [2] [µg/mL] | IC50 [3] [µg/mL] | IC90 [3] [µg/mL] | IC50 [4] [µg/mL] | IC90 [4] [µg/mL] | IC50 [5] [µg/mL] | IC90 [5] [µg/mL] | IC50 [6] [µg/mL] | IC90 [6] [µg/mL] | IC50 [7] [µg/mL] | IC90 [7] [µg/mL] | IC50 [8] [µg/mL] | IC90 [8] [µg/mL] | IC50 [9] [µg/mL] | IC90 [9] [µg/mL] | IC50 [10] [µg/mL] | IC90 [10] [µg/mL] | SMILES | other results
1 | 2.82 (≈ 3.83 µM) | 9.85 (≈ 13.4 µM) | 0.91 (≈ 1.24 µM) | 4.9 (≈ 6.66 µM) | 2.89 (≈ 3.93 µM) | 5.8 (≈ 7.88 µM) | 3.17 (≈ 4.31 µM) | 7.14 (≈ 9.7 µM) | 0.95 (≈ 1.29 µM) | 3.94 (≈ 5.35 µM) | 0.04 (≈ 0.0544 µM) | 0.5 (≈ 0.679 µM) | 0.9 (≈ 1.22 µM) | 2 (≈ 2.72 µM) | 1.46 (≈ 1.98 µM) | 4.82 (≈ 6.55 µM) | 1.02 (≈ 1.39 µM) | 3.33 (≈ 4.52 µM) | 0.59 (≈ 0.802 µM) | 1.76 (≈ 2.39 µM) | C=CCN(C)CC(O)COc1c(OC)cc2c3c1Oc1cc4c(cc1OC)CCN(C)[C@H]4Cc1ccc(cc1)Oc1cc(ccc1OC)C[C@@H]3N(C)CC2 (stereo partly drawn) [BS-FC-409] | IC50 [11]: 0.16 µg/mL (≈ 0.217 µM); IC90 [11]: 1.38 µg/mL (≈ 1.88 µM); IC50 [12]: 2.98 µg/mL (≈ 4.05 µM); IC90 [12]: 8.43 µg/mL (≈ 11.5 µM); IC50 [13]: 1.1 µg/mL (≈ 1.49 µM); IC90 [13]: 1.99 µg/mL (≈ 2.7 µM); IC50 [14]: 0.65 µg/mL (≈ 0.883 µM); IC90 [14]: 1.27 µg/mL (≈ 1.73 µM); IC50 [15]: 1.79 µg/mL (≈ 2.43 µM); IC90 [15]: 5.54 µg/mL (≈ 7.53 µM); IC50 [16]: 1.07 µg/mL (≈ 1.45 µM); IC90 [16]: 2.68 µg/mL (≈ 3.64 µM); IC50 [17]: 1.27 µg/mL (≈ 1.73 µM); IC90 [17]: 3.24 µg/mL (≈ 4.4 µM); antitumor activity compared with that of fangchinoline (tumor): significantly superior
2 | 1.39 (≈ 1.82 µM) | 5.59 (≈ 7.32 µM) | 0.76 (≈ 0.995 µM) | 4.3 (≈ 5.63 µM) | 2.85 (≈ 3.73 µM) | 3.89 (≈ 5.09 µM) | 1.11 (≈ 1.45 µM) | 3.77 (≈ 4.93 µM) | 1.1 (≈ 1.44 µM) | 2.4 (≈ 3.14 µM) | < 0.125 | 0.25 (≈ 0.327 µM) | 1.13 (≈ 1.48 µM) | 2 (≈ 2.62 µM) | 0.84 (≈ 1.1 µM) | 1.86 (≈ 2.43 µM) | 0.64 (≈ 0.838 µM) | 1.61 (≈ 2.11 µM) | 0.28 (≈ 0.367 µM) | 0.91 (≈ 1.19 µM) | COc1ccc2cc1Oc1ccc(cc1)C[C@H]1c3cc(c(OC)cc3CCN1C)Oc1c(OCC(O)CN3CCCC(C)C3)c(OC)cc3c1[C@H](C2)N(C)CC3 (stereo partly drawn) [BS-FC-410] | anti-PANC-1 activity increase over fangchinoline [4, 18]: ~3 fold; IC50 [11]: 0.05 µg/mL (≈ 0.0654 µM); IC90 [11]: 0.63 µg/mL (≈ 0.825 µM); IC50 [12]: 1.71 µg/mL (≈ 2.24 µM); IC90 [12]: 6.8 µg/mL (≈ 8.9 µM); IC50 [13]: 1.1 µg/mL (≈ 1.44 µM); IC90 [13]: 1.7 µg/mL (≈ 2.23 µM); IC50 [14]: 0.44 µg/mL (≈ 0.576 µM); IC90 [14]: 0.95 µg/mL (≈ 1.24 µM); IC50 [15]: 2.25 µg/mL (≈ 2.95 µM); IC90 [15]: 8 µg/mL (≈ 10.5 µM); IC50 [16]: 0.67 µg/mL (≈ 0.877 µM); IC90 [16]: 1.19 µg/mL (≈ 1.56 µM); IC50 [17]: 0.66 µg/mL (≈ 0.864 µM); IC90 [17]: 1.51 µg/mL (≈ 1.98 µM); anti-Hep G2 activity increase over fangchinoline [17, 18]: ~3 fold; antitumor activity compared with that of fangchinoline (tumor): significantly superior
